The source of these data is publication PMC11324517 (Nature, 2024).

Where “and” joins values, the source holds several entries; their conditions need not be identical. Identical values can stand only once.

In data set [1] the target is T1, ∆-hDAT (Homo sapiens, UniProt Q01959, I248Y). As to the kind of experiment: Scintillation proximity assay (SPA), [3H]WIN35428 binding to purified His-tagged ∆-hDAT. Further details: expressed in transfected cells; host or cells: HEK293 GnTI- cells, BacMam baculovirus transduction. The following applies: β-CFT 0.617 nM, background not subtracted. On the procedure: The various buffer systems were unchanged. YSi-Cu SPA beads at 1 mg ml^−1 were added to ∆-hDAT (30 nM) in SEC buffer (0.02% digitonin, 0.002% CHS, 50 mM HEPES pH 7.8, 200 mM NaCl, 25 µM POPC and 4 µM MRS7292). [^3H]-WIN35428 (82.8 Ci mmol^−1) in 20 mM HEPES pH 7.8 and 100 mM NaCl was used at concentration points ranging from 0 to 150 nM. For background measurement, 100 µM of GBR12909 was added to the assay buffer. Reactants were added to a 96-well isoplate, briefly mixed on a shaker at room temperature, and [^3H] counts were recorded using a MicroBeta2. […] Background subtracted counts were plotted and analysed by a single-site binding model via nonlinear regression analysis in GraphPad Prism v7.05.
(In general: SPA uses beads or plates that emit light when radiolabelled molecules are held near them.)

The next data set deals with hDAT W84C. The settings on record: W84C mutant; cited from earlier work.
For data set [2], the target named is T1, ∆-hDAT. Briefly: Zn2+ inhibition of [3H]dopamine uptake (IC50), ∆-hDAT. It counts as cell-based. Further details: expressed in transfected cells; host or cells: HEK293 GnTI- cells, BacMam baculovirus transduction. The following applies: [3H]dopamine uptake raw counts, Fig 3c, triplicates, replicates 1-3. Here is the method:
(§1) For IC50 measurements of Zn^2+, uptake assays were carried out as described for MRS7292 with the following alterations. The uptake buffer contained EPPS at pH 8.5 in place of HEPES. Cells were washed once with uptake buffer containing 1 mM ethylenediaminetetraacetic acid (EDTA) to chelate ambient Zn^2+ from the cell growth medium, followed by second wash without EDTA. Cells were then incubated for 15 min in uptake buffers containing 0.3–300 µM added Zn^2+ for ∆-hDAT, 0.1–100 µM added Zn^2+ for T211H, and 0.03–30 µM added Zn^2+ for T211E. […] The IC50 of Zn^2+ for the T211E mutant was also measured at pH 7.5 to obtain a more complete inhibition curve.

The next data set deals with T2, ∆-hDAT T211E (Homo sapiens, UniProt Q01959, I248Y/T211E).
T2 construct: expressed in transfected cells; host or cells: HEK293 GnTI- cells, BacMam baculovirus transduction
As to the kind of experiment: Zn2+ inhibition of [3H]dopamine uptake (IC50), T211E mutant. The class given is cell-based. The settings on record: for T211E total: [3H]dopamine uptake raw counts, Fig 3c, triplicates, replicates 1-3. On the procedure: as §1

The test system of a further data set is hDAT D191N. The settings on record: D191 mutated to asparagine; cited from earlier work.
The next data set addresses T3, ∆-hDAT T211H (Homo sapiens, UniProt Q01959, I248Y/T211H).
T3 construct: expressed in transfected cells; host or cells: HEK293 GnTI- cells, BacMam baculovirus transduction
As to the kind of experiment: Zn2+ inhibition of [3H]dopamine uptake (IC50), T211H mutant. It counts as cell-based. The following applies: for T211H total: [3H]dopamine uptake raw counts, Fig 3c, triplicates, replicates 1-3. Here is the method:
as §1

A further data set addresses full-length hDAT (Homo sapiens, UniProt Q01959). The settings on record: full-length hDAT, HEK293 GnTI− cells, mean ± s.d., n = 3.
In data set [3] the target is T1, ∆-hDAT. The following applies: ∆-hDAT, HEK293 GnTI− cells, mean ± s.d., n = 3.
Substrate in data set [4]: NCCc1ccc(O)c(O)c1
As to the kind of experiment: cells, lysate or membranes. The following applies: HEK293 GnTI− cells, Michaelis–Menten model, mean ± s.d., n = 3, pH 7.4.

T3 sequence (Q01959 57-620 T211H/I248Y limits assumed): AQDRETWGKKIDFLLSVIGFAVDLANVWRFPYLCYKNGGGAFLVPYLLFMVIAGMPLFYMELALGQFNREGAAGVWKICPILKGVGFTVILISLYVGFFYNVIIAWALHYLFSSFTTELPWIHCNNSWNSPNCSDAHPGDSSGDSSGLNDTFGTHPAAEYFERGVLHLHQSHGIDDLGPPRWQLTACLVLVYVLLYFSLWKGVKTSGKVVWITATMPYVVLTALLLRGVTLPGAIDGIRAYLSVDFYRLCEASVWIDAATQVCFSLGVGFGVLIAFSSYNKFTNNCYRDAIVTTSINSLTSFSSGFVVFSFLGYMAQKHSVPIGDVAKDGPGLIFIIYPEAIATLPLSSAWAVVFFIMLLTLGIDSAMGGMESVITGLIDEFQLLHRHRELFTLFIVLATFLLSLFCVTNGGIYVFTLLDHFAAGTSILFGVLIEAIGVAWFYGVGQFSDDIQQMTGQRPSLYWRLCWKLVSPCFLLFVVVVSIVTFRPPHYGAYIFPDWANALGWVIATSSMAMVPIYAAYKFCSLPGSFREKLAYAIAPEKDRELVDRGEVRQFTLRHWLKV
T2 sequence (Q01959 57-620 T211E/I248Y limits assumed): as the sequence (Q01959 57-620 T211H/I248Y limits assumed) above, with H155E counted along it

Take `COC(=O)C1C(c2ccc(F)cc2)CC2CCC1N2C` (single isomer, unassigned; (-)) [β-CFT, (–)-2-β-carbomethoxy-3-β-(4-fluorophenyl)tropane]: the “SPA total counts, binding to purified ∆-hDAT” value on ∆-hDAT [1] is 204 and 169 and 192 and 177 and 171 and 174 and 189 and 179.

Turning to `CCc1ccc2[nH]c3nc(SCCNS(=O)(=O)c4ccc(NC(C)=O)cc4)nnc3c2c1` [KM822], the “effect of mutation on potency of KM822” value with hDAT W84C is listed as “increases the potency”.

For the molecule `[Zn+2]` [Zn^2+], the Δ-hDAT total counts at ∆-hDAT [2] (Added Zn2+ 0.41 µM) was 3458 counts and 3089 counts and 3357 counts and 3017 counts and 2960 counts and 2624 counts and 3155 counts and 3308 counts and 3482 counts; on ∆-hDAT [2] (Added Zn2+ 1.23 µM) it was 3105 counts and 3118 counts and 3175 counts and 2225 counts and 1943 counts and 2195 counts and 3616 counts and 3027 counts and 2892 counts; at ∆-hDAT [2] (Added Zn2+ 3.70 µM), 1979 counts and 2178 counts and 2228 counts and 2099 counts and 1947 counts and 1866 counts and 2321 counts and 2149 counts and 1943 counts; on ∆-hDAT [2] (Added Zn2+ 11.11 µM) it was 2029 counts and 1818 counts and 1787 counts and 1695 counts and 1560 counts and 1477 counts and 1550 counts and 1703 counts and 2026 counts; at ∆-hDAT [2] (Added Zn2+ 33.33 µM), 1238 counts and 1123 counts and 1240 counts and 1063 counts and 1147 counts and 906 counts and 1573 counts and 1503 counts and 1606 counts; on ∆-hDAT [2] (Added Zn2+ 100.00 µM), 771 counts and 681 counts and 793 counts and 660 counts and 598 counts and 682 counts and 1221 counts and 1015 counts and 885 counts. For the same molecule, the Δ-hDAT total counts at ∆-hDAT [2] (Added Zn2+ 300.00 µM) was 402 counts and 451 counts and 435 counts and 386 counts and 349 counts and 353 counts and 418 counts and 427 counts. Besides, the T211E total on ∆-hDAT T211E (Added Zn2+ 0.0457 µM) is 1043 and 1084 and 946 and 1214 and 1350 and 1252 and 1437 and 1516 and 1325; at ∆-hDAT T211E (Added Zn2+ 0.14 µM), 623 and 609 and 563 and 777 and 766 and 728 and 853 and 1009 and 867; on ∆-hDAT T211E (Added Zn2+ 0.41 µM), 635 and 450 and 501 and 372 (2×) and 389 and 527 and 516 and 677; at ∆-hDAT T211E (Added Zn2+ 1.23 µM), 459 and 447 and 440 and 286 and 276 and 244 and 481 and 403 (2×); at ∆-hDAT T211E (Added Zn2+ 3.70 µM), 335 and 268 and 302 and 159 and 217 and 381 and 284 and 246 and 231; on ∆-hDAT T211E (Added Zn2+ 11.11 µM) it was 323 and 314 and 345 and 238 and 249 and 229 and 277 and 278. For the same molecule, the T211E total on ∆-hDAT T211E (Added Zn2+ 33.33 µM) is 416 and 290 and 362 and 261 and 242 and 215 and 342 and 313 and 301. Also, the “IC50 of Zn2+ lower than that of ∆-hDAT” value on ∆-hDAT T211E (T211E mutant, [3H]dopamine uptake, pH 8.5) is “around 100 fold”; at ∆-hDAT T211H (T211H mutant, [3H]dopamine uptake, pH 8.5), roughly 20 fold. Besides, the “decrease in apparent Zn2+ affinity” value in the data set on hDAT D191N is “apparent threefold decrease”. The T211H total on ∆-hDAT T211H (Added Zn2+ 0.14 µM) was 2307 and 2405 and 2334 and 1111 and 679 and 946 and 2428 and 2969 and 2868; on ∆-hDAT T211H (Added Zn2+ 0.41 µM), 1917 and 1650 and 1702 and 922 and 890 and 993 and 2213 and 1804 and 1794; at ∆-hDAT T211H (Added Zn2+ 1.23 µM), 1146 and 1389 and 1404 and 571 and 540 and 534 and 1806 and 1414 and 1274; at ∆-hDAT T211H (Added Zn2+ 3.70 µM), 951 and 892 and 809 and 316 and 317 and 411 and 837 and 824 and 1109; at ∆-hDAT T211H (Added Zn2+ 11.11 µM), 810 and 577 and 717 and 230 and 281 and 267 and 486 and 515 and 477; on ∆-hDAT T211H (Added Zn2+ 33.33 µM) it was 528 and 524 and 546 and 246 and 210 and 198 and 441 and 462 and 475. In addition, on ∆-hDAT T211H (Added Zn2+ 100.00 µM), the T211H total was 419 and 394 and 350 and 158 and 145 and 163 and 252 and 226 and 267.

As to `NCCc1ccc(O)c(O)c1` [[^3H]dopamine, dopamine], the “reaction rate at infinite substrate concentration (Vmax) for [3H]dopamine uptake” value is reported as 190.9 ± 10.7 fmol min^−1 per well at full-length hDAT and 342.8 ± 11.7 fmol min^−1 per well at ∆-hDAT [3].

B1: ∆-hDAT (Homo sapiens; I248Y) (protein)
chain: AQDRETWGKKIDFLLSVIGFAVDLANVWRFPYLCYKNGGGAFLVPYLLFMVIAGMPLFYMELALGQFNREGAAGVWKICPILKGVGFTVILISLYVGFFYNVIIAWALHYLFSSFTTELPWIHCNNSWNSPNCSDAHPGDSSGDSSGLNDTFGTTPAAEYFERGVLHLHQSHGIDDLGPPRWQLTACLVLVYVLLYFSLWKGVKTSGKVVWITATMPYVVLTALLLRGVTLPGAIDGIRAYLSVDFYRLCEASVWIDAATQVCFSLGVGFGVLIAFSSYNKFTNNCYRDAIVTTSINSLTSFSSGFVVFSFLGYMAQKHSVPIGDVAKDGPGLIFIIYPEAIATLPLSSAWAVVFFIMLLTLGIDSAMGGMESVITGLIDEFQLLHRHRELFTLFIVLATFLLSLFCVTNGGIYVFTLLDHFAAGTSILFGVLIEAIGVAWFYGVGQFSDDIQQMTGQRPSLYWRLCWKLVSPCFLLFVVVVSIVTFRPPHYGAYIFPDWANALGWVIATSSMAMVPIYAAYKFCSLPGSFREKLAYAIAPEKDRELVDRGEVRQFTLRHWLKV
Turning to B1, in [4] (other: ∆-hDAT), the Km (usually the concentration of substrate that gives half-maximal velocity) stood at 0.55 ± 0.07 µM.

B2: full-length hDAT (Homo sapiens) (protein)
chain: MSKSKCSVGLMSSVVAPAKEPNAVGPKEVELILVKEQNGVQLTSSTLTNPRQSPVEAQDRETWGKKIDFLLSVIGFAVDLANVWRFPYLCYKNGGGAFLVPYLLFMVIAGMPLFYMELALGQFNREGAAGVWKICPILKGVGFTVILISLYVGFFYNVIIAWALHYLFSSFTTELPWIHCNNSWNSPNCSDAHPGDSSGDSSGLNDTFGTTPAAEYFERGVLHLHQSHGIDDLGPPRWQLTACLVLVIVLLYFSLWKGVKTSGKVVWITATMPYVVLTALLLRGVTLPGAIDGIRAYLSVDFYRLCEASVWIDAATQVCFSLGVGFGVLIAFSSYNKFTNNCYRDAIVTTSINSLTSFSSGFVVFSFLGYMAQKHSVPIGDVAKDGPGLIFIIYPEAIATLPLSSAWAVVFFIMLLTLGIDSAMGGMESVITGLIDEFQLLHRHRELFTLFIVLATFLLSLFCVTNGGIYVFTLLDHFAAGTSILFGVLIEAIGVAWFYGVGQFSDDIQQMTGQRPSLYWRLCWKLVSPCFLLFVVVVSIVTFRPPHYGAYIFPDWANALGWVIATSSMAMVPIYAAYKFCSLPGSFREKLAYAIAPEKDRELVDRGEVRQFTLRHWLKV
As to B2, the Km in data set [4] (other: full-length hDAT) is 0.56 ± 0.13 µM.
